These results are taken from US5455222A, “1-substituted-5-thiomethylthiocyanato-1H-tetrazoles, compositions containing them and their use as antimicrobial and marine antifouling agents” (The Dow Chemical Company, priority 1994, dated 1995).

Values after ≈ are worked out from the molar mass of the structure shown.

Test [1] relates to Staphylococcus aureus (Sa). Kind of test: Minimum inhibitory concentration (MIC), bacteria in nutrient agar. Conditions: 48 hours. Format: cell-based, Staphylococcus aureus ATCC 6538. Here is the method: (§1) The minimum inhibitory concentration (MIC) for the compounds listed in Table I is determined for 9 bacteria, using nutrient agar, and 7 yeast and fungi, using malt yeast agar. A one percent solution of the test compound is prepared in a mixture of acetone and water.
(§2) Nutrient agar is prepared at pH 6.8, representing a neutral medium, and at pH 8.2, representing an alkaline medium. The nutrient agars are prepared by adding 23 g of nutrient agar to one liter of deionized water. In addition, the alkaline medium is prepared by adjusting a 0.04M solution of N-[tris-(hydroxymethyl)methyl]glycine buffered deionized water with concentrated sodium hydroxide to a pH of 8.5.
(§3) The test tubes containing the agar are cooled in a water bath until the temperature of the agar is 48° C. Then, an appropriate amount of the one percent solution of the test compound is added (except in the controls where no compound is added) to the respective test tubes so that the final concentrations are 500, 250, 100, 50, 25, 10, 5, 2.5, 1.0 and zero parts per million of the test compound in the agar, thus having a known concentration of test compound dispersed therein. The contents of the test tubes are then transferred to respective petri plates. After drying for 24 hours, the petri plates containing nutrient agar are inoculated with bacteria and those containing malt yeast agar are inoculated with yeast and fungi.
(§4) The inoculation with bacteria is accomplished by using the following procedure. Twenty-four hour-cultures of each of the bacteria are prepared by incubating the respective bacteria in tubes containing nutrient broth for 24 hours at 30° C. in a shaker. Dilutions of each of the 24 hour-cultures are made so that nine separate suspensions (one for each of the nine test bacteria) are made, each containing 10^8 colony forming units (CFU) per mL of suspension of a particular bacteria. Aliquots of 0.3 mL of each of the bacterial suspensions are used to fill the individual wells of Steer's Replicator. For each microbial suspension, 0.3 mL was used to fill three wells (i.e., three wells of 0.3 mL each) so that for the nine different bacteria, 27 wells are filled. The Steer's Replicator is then used to inoculate both the neutral and alkaline pH nutrient agar petri plates.
(§5) The inoculated petri plates are incubated at 30° C. for 48 hours and then read to determine if the test compound which is incorporated into the agar prevented growth of the respective bacteria.
(§6) Table II lists the bacteria, yeast and fungi used in the MIC test described above along with their respective American Type Culture Collection (ATCC) identification numbers.
(§7) In Tables III and IV, the MIC values of the compounds described in Table I as compared to the MIC of a standard commercial preservative (with 1-(3-chloroallyl)-3,5,7-triaza-1-azoniaadamantane chloride as the active agent and referred to in Tables III and IV as "STANDARD I") are set forth for the bacteria organisms and yeast/fungi organisms which are listed in Table II.

The subject of a further test is Bacillus subtilis (Bs). The description is as above. Conditions: 48 hours. In kind it is cell-based, Bacillus subtilis ATCC 8473. Here is the method: as §1, §2, §3, §4, §5, §6, §7
For test [2], the system named is Pseudomonas aeruginosa (PRD-10). Described as above. The following applies: 48 hours. In kind it is cell-based, Pseudomonas aeruginosa ATCC 15442. On the procedure:
as §1, §2, §3, §4, §5, §6, §7

For test [3], the system named is Salmonella choleraesuis (Sc). The test is described as above. Format: cell-based, Salmonella choleraesuis ATCC 10708. Conditions: Salmonella enterica, 48 hours. On the procedure: as §1, §2, §3, §4, §5, §6, §7
For another test, the system named is Fusarium oxysporum (Fo). As to the kind of experiment: Minimum inhibitory concentration (MIC), yeast/fungi in malt yeast agar. In kind it is cell-based, Fusarium oxysporum ATCC 48112. The following applies: 30° C., 72 hours for fungi. Here is the method: as §1
(§8) Malt yeast agar is prepared by adding 3 g yeast extract and 45 g malt agar per liter of deionized water. The specific agar is dispensed in 30 mL aliquots into 25×200 mm test tubes, capped and autoclaved for 15 minutes at 115° C.
as §3
(§9) The inoculation with the yeast and fungi is accomplished as follows. Cultures of yeast and fungi are incubated for seven days on malt yeast agar at 30° C. These cultures are used to prepare suspensions by the following procedure. A suspension of each organism is prepared by adding 10 mL of sterile saline and 10 microliters of octylphenoxy polyethoxy ethanol to the agar slant of yeast or fungi. The sterile saline/octylphenoxy polyethoxy ethanol solution is then agitated with a sterile swab to suspend the microorganism grown on the slant. Each resulting suspension is diluted into sterile saline (1 part suspension to 9 parts sterile saline). Aliquots of these dilutions are placed in individual wells of Steer's Replicator and petri plates inoculated as previously described. The petri plates are incubated at 30° C. and read after 48 hours for yeast and 72 hours for fungi.
as §6, §7

For the next test, the system named is Aspergillus niger (An). The test is described as above. In kind it is cell-based, Aspergillus niger ATCC 16404. The following applies: 30° C., 72 hours for fungi. On the procedure: as §1, §8, §3, §9, §6, §7
The next test concerns Proteus vulgaris (Pv). As to the kind of experiment: Minimum inhibitory concentration (MIC), bacteria in nutrient agar. Format: cell-based, Proteus vulgaris ATCC 881. The following applies: 48 hours. Here is the method:
as §1, §2, §3, §4, §5, §6, §7

Test [4] relates to Enterobacter aerogenes (Ea). The test is described as above. In kind it is cell-based, Enterobacter aerogenes ATCC 13048. The following applies: Klebsiella aerogenes, 48 hours. On the procedure: as §1, §2, §3, §4, §5, §6, §7
Test [5] relates to Saccharomyces cerevisiae (Sc). As to the kind of experiment: Minimum inhibitory concentration (MIC), yeast/fungi in malt yeast agar. Format: cell-based, Saccharomyces cerevisiae ATCC 4105. The following applies: 30° C., 48 hours for yeast. Here is the method: as §1, §8, §3, §9, §6, §7
Test [6] has as its system Aureobasidium pullulan (Ap). The test is described as above. Conditions: 30° C., read after 48 hours for yeast and 72 hours for fungi. Format: cell-based, Aureobasidium pullulan ATCC 16622. On the procedure:
as §1, §8, §3, §9, §6, §7

The test system of test [7] is Penicillium chrysogenum (Pc). The description is as above. The following applies: 30° C., 72 hours for fungi. Format: cell-based, Penicillium chrysogenum ATCC 9480. On the procedure: as §1, §8, §3, §9, §6, §7
In a further test the test system is Trichoderma viride (Tv). The description is as above. In kind it is cell-based, Trichoderma viride ATCC 8678. The following applies: 30° C., 72 hours for fungi. Here is the method: as §1, §8, §3, §9, §6, §7
In the next test the test system is Candida albicans (Ca). The description is as above. In kind it is cell-based, Candida albicans ATCC 10231. The following applies: 30° C., 48 hours for yeast. Here is the method: as §1, §8, §3, §9, §6, §7
The subject of test [8] is Klebsiella pneumoniae (Kp). Kind of test: Minimum inhibitory concentration (MIC), bacteria in nutrient agar. Format: cell-based, Klebsiella pneumoniae ATCC 8308. The following applies: 48 hours. Here is the method:
as §1, §2, §3, §4, §5, §6, §7

The subject of another test is Escherichia coli (Ec). The description is as above. Format: cell-based, Escherichia coli ATCC 11229. The following applies: 48 hours. Here is the method: as §1, §2, §3, §4, §5, §6, §7

With `N#CSCSc1nnnn1-c1ccc(F)cc1` [V, 1-(4-Fluorophenyl)-5-thiomethylthiocyanato-1H-tetrazole], the minimum inhibitory concentration (MIC) (commonly the lowest concentration that inhibits growth of the organism) in test [1] (nutrient agar pH 6.8, 30° C.) was 25 µg/mL (≈ 93.5 µM); in [1] (nutrient agar pH 8.2, 30° C.) it was 50 µg/mL (≈ 187 µM); with Bacillus subtilis (Bs) (nutrient agar pH 6.8, 30° C.), less than 10 µg/mL; with Bacillus subtilis (Bs) (nutrient agar pH 8.2, 30° C.), 50 µg/mL (≈ 187 µM); in test [2] (nutrient agar pH 6.8, 30° C.) it was 50 µg/mL (≈ 187 µM); in test [2] (nutrient agar pH 8.2, 30° C.), 100 µg/mL (≈ 374 µM). Besides, the MIC in test [3] (nutrient agar pH 6.8, 30° C.) was found to be 100 µg/mL (≈ 374 µM); in [3] (nutrient agar pH 8.2, 30° C.), 250 µg/mL (≈ 935 µM); against Fusarium oxysporum (Fo), 5 µg/mL (≈ 18.7 µM); against Aspergillus niger (An) it was 5 µg/mL (≈ 18.7 µM); in the test on Proteus vulgaris (Pv) (nutrient agar pH 6.8, 30° C.), 50 µg/mL (≈ 187 µM); in the test with Proteus vulgaris (Pv) (nutrient agar pH 8.2, 30° C.) it was 250 µg/mL (≈ 935 µM). Further, the MIC in test [4] (nutrient agar pH 6.8, 30° C.) was determined as 250 µg/mL (≈ 935 µM); in test [4] (nutrient agar pH 8.2, 30° C.), 500 µg/mL (≈ 1870 µM); in test [5], 5 µg/mL (≈ 18.7 µM); in test [6] it was 2.5 µg/mL (≈ 9.35 µM); in test [7], 2.5 µg/mL (≈ 9.35 µM); against Trichoderma viride (Tv) it was 25 µg/mL (≈ 93.5 µM). In addition, the MIC in the test on Candida albicans (Ca) is 25 µg/mL (≈ 93.5 µM); in test [8] (nutrient agar pH 6.8, 30° C.), 100 µg/mL (≈ 374 µM); in test [8] (nutrient agar pH 8.2, 30° C.), 250 µg/mL (≈ 935 µM); against Escherichia coli (Ec) (nutrient agar pH 6.8, 30° C.), 100 µg/mL (≈ 374 µM); with Escherichia coli (Ec) (nutrient agar pH 8.2, 30° C.), 500 µg/mL (≈ 1870 µM).

Regarding `CC(C)(C)c1ccc(-n2nnnc2SCSC#N)cc1` [IX, 1-(tertiary-Butylphenyl)-5-thiomethylthiocyanato-1H-tetrazole], the MIC in [1] (nutrient agar pH 6.8, 30° C.) amounted to 50 µg/mL (≈ 164 µM); in test [1] (nutrient agar pH 8.2, 30° C.) it was 50 µg/mL (≈ 164 µM); in the test on Bacillus subtilis (Bs) (nutrient agar pH 6.8, 30° C.) it was 25 µg/mL (≈ 81.9 µM); in the test on Bacillus subtilis (Bs) (nutrient agar pH 8.2, 30° C.) it was 50 µg/mL (≈ 164 µM); in test [2] (nutrient agar pH 6.8, 30° C.), 500 µg/mL (≈ 1640 µM); in [2] (nutrient agar pH 8.2, 30° C.), 500 µg/mL (≈ 1640 µM). Also, the MIC in test [3] (nutrient agar pH 6.8, 30° C.) is 50 µg/mL (≈ 164 µM); in test [3] (nutrient agar pH 8.2, 30° C.), 100 µg/mL (≈ 327 µM); in the test on Fusarium oxysporum (Fo), 25 µg/mL (≈ 81.9 µM); in the test with Aspergillus niger (An), 5 µg/mL (≈ 16.4 µM); in the test with Proteus vulgaris (Pv) (nutrient agar pH 6.8, 30° C.), 250 µg/mL (≈ 819 µM); against Proteus vulgaris (Pv) (nutrient agar pH 8.2, 30° C.), 100 µg/mL (≈ 327 µM). For the same molecule, the MIC in test [4] (nutrient agar pH 6.8, 30° C.) came to 500 µg/mL (≈ 1640 µM); in [4] (nutrient agar pH 8.2, 30° C.), 500 µg/mL (≈ 1640 µM); in test [5], 10 µg/mL (≈ 32.7 µM); in test [6] it was 2.5 µg/mL (≈ 8.19 µM); in [7], 2.5 µg/mL (≈ 8.19 µM); against Trichoderma viride (Tv), 100 µg/mL (≈ 327 µM). Besides, the MIC with Candida albicans (Ca) turned out to be 100 µg/mL (≈ 327 µM); in test [8] (nutrient agar pH 6.8, 30° C.) it was 250 µg/mL (≈ 819 µM); in test [8] (nutrient agar pH 8.2, 30° C.) it was 100 µg/mL (≈ 327 µM); against Escherichia coli (Ec) (nutrient agar pH 6.8, 30° C.), 50 µg/mL (≈ 164 µM); against Escherichia coli (Ec) (nutrient agar pH 8.2, 30° C.), 250 µg/mL (≈ 819 µM).

As to `N#CSCSc1nnnn1-c1ccc(Br)cc1` [IV, 1-(4-Bromophenyl)-5-thiomethylthiocyanato-1H-tetrazole], the MIC was 500 µg/mL (≈ 1520 µM) in test [1] (nutrient agar pH 6.8, 30° C.); 500 µg/mL (≈ 1520 µM) in test [1] (nutrient agar pH 8.2, 30° C.); less than 10 µg/mL against Bacillus subtilis (Bs) (nutrient agar pH 6.8, 30° C.); 25 µg/mL (≈ 76.2 µM) against Bacillus subtilis (Bs) (nutrient agar pH 8.2, 30° C.); 500 µg/mL (≈ 1520 µM) in test [2] (nutrient agar pH 6.8, 30° C.); 500 µg/mL (≈ 1520 µM) in [2] (nutrient agar pH 8.2, 30° C.). The MIC in test [3] (nutrient agar pH 6.8, 30° C.) is 500 µg/mL (≈ 1520 µM); in [3] (nutrient agar pH 8.2, 30° C.), 500 µg/mL (≈ 1520 µM); in the test on Fusarium oxysporum (Fo), less than 10 µg/mL; against Aspergillus niger (An) it was less than 10 µg/mL; against Proteus vulgaris (Pv) (nutrient agar pH 6.8, 30° C.), 500 µg/mL (≈ 1520 µM); in the test on Proteus vulgaris (Pv) (nutrient agar pH 8.2, 30° C.) it was 500 µg/mL (≈ 1520 µM). Moreover, the MIC is 500 µg/mL (≈ 1520 µM) in [4] (nutrient agar pH 6.8, 30° C.); 500 µg/mL (≈ 1520 µM) in test [4] (nutrient agar pH 8.2, 30° C.); less than 10 µg/mL in test [5]; less than 10 µg/mL in test [6]; less than 10 µg/mL in test [7]; 25 µg/mL (≈ 76.2 µM) against Trichoderma viride (Tv). The minimal inhibitory concentration (MIC) against Candida albicans (Ca) was 25 µg/mL (≈ 76.2 µM); in test [8] (nutrient agar pH 6.8, 30° C.) it was 500 µg/mL (≈ 1520 µM); in test [8] (nutrient agar pH 8.2, 30° C.), 500 µg/mL (≈ 1520 µM); with Escherichia coli (Ec) (nutrient agar pH 6.8, 30° C.), 500 µg/mL (≈ 1520 µM); against Escherichia coli (Ec) (nutrient agar pH 8.2, 30° C.), 500 µg/mL (≈ 1520 µM).
